In patent US20130183239A1, “ISOTOPIC CARBON CHOLINE ANALOGS” (IMPERIAL COLLEGE, priority 2010, published 2013):

Tests used:
[1] = mouse, in vivo, iv
[2] = test system: human melanoma (A375), prostate (PC3-M) and colon (HCT116) cancer cell lines; assay: In vitro 18F-D4-choline uptake in cancer cell lines; assay type: cell-based; settings: the three cell lines over 30 min
Protocol: Uptake was measured in vehicle-treated (closed symbols) and hemicholinium-3-treated cells (5 mM; open symbols). Mean values+SEM are shown (n=3). Insert: representative western blot of choline kinase-α expression in the three cell lines. Actin was used as a loading control. Abbreviations: CKα, choline kinase alpha.
Cells (5×10^5) were plated into 6-well plates the night prior to analysis. On the day of the experiment, fresh growth medium, containing 40 μCi ^18F-D4-choline, was added to individual wells. Cell uptake was measured following incubation at 37° C. in a humidified atmosphere of 5% CO2 for 60 min. Plates were subsequently placed on ice, washed 3 times with ice-cold PBS and lysed in RIPA buffer (Thermo Fisher Scientific Inc., Rockford, Ill., USA; 1 mL, 10 min). […] Aliquots were snap-frozen and used for protein determination following radioactive decay using a BCA 96-well plate assay (Thermo Fisher Scientific Inc., Rockford, Ill., USA). Data were expressed as percent of total radioactivity per mg protein. For hemicholinium-3 treatment (5 mM; Sigma-Aldrich), cells were incubated with the compound 30 min prior to addition of radioactivity and for the duration of the uptake time course. […]

[3] = test system: malignant melanoma A375 tumors; design: AUC: unit not given beside the values
Protocol: (§1) Dynamic ^11C-choline, ^11C-D4-choline and ^18F-D4-choline imaging scans were carried out on a dedicated small animal PET scanner (Siemens Inveon PET module, Siemens Medical Solutions USA, Inc., Malvem, Pa., USA) following a bolus i.v. injection in tumor-bearing mice of either ˜3.7 MBq for ^18F studies, or ˜18.5 MBq for ^11C. Dynamic scans were acquired in list mode format over 60 min. The acquired data were then sorted into 0.5 mm sinogram bins and 19 time frames for image reconstruction (4×15 s, 4×60 s, and 11×300 s), which was done by filtered back projection. For input function analysis, data were sorted into 25 time frames for image reconstruction (8×5 s, 1×20 s, 4×40 s, 1×80 s, and 11×300 s). The Siemens Inveon Research Workplace software was used for visualization of radiotracer uptake in the tumor; 30 to 60 min cumulative images of the dynamic data were employed to define 3-dimensional (3D) regions of interest (ROIs). Arterial input function was estimated as follows: a single voxel 3D ROI was manually drawn in the center of the heart cavity using 2 to 5 min cumulative images. Care was taken to minimize ROI overlap with the myocardium. The count densities were averaged for all ROIs at each time point to obtain a time versus radioactivity curve (TAC). Tumor TACs were normalized to injected dose, measured by a VDC-304 dose calibrator (Veenstra Instruments, Joure, The Netherlands), and expressed as percentage injected dose per mL tissue. The area under the TAC, calculated as the integral of % ID/mL from 0-60 min, and the normalized uptake of radiotracer at 60 min (% ID/mL60) were also used for comparisons.
(§2) A 2-tissue irreversible compartmental model was employed to fit the TACs, as has been previously established for ^11C-choline (Kenny L M, Contractor K B, Hinz R, et al. Reproducibility of [11C]choline-positron emission tomography and effect of trastuzumab. Clin Cancer Res. Aug. 15 2010; 16(16):4236-4245; and Sutinen E, Nurmi M, Roivainen A, et al. Kinetics of [(11)C]choline uptake in prostate cancer: a PET study. Eur J Nucl Med Mol. Imaging. March 2004; 31(3):317-324). An estimate of the whole blood TAC (wbTAC(t)) was derived from the PET image itself, as described above. […] Therefore it was fitted with a sum of 3 exponentials from the peak on and the fitted function was used as input function in the kinetic modeling (after metabolite correction, see below). […] The pf values were fitted to a sum of two exponentials with the constraint pf(t=0)=1 to obtain the function pf(t). The parent whole blood TAC wbTACPAR(t) was then computed by multiplying wbTAC(t) and pf(t) and used as input function to estimate the parameters K1 (mL/cm^3/min), k2 (1/min), k3 (1/min) and Vb (unitless). The steady state net irreversible uptake rate constant Ki (mL/cm^3/min) was calculated from the estimated microparameters as K1k3/(k2+k3).

[4] = test system: HCT116 tumors; design: AUC: unit not given beside the values
Protocol: as §1, §2

[5] = A375 tumors, 2-tissue irreversible model
[6] = HCT116 tumors, two-tissue irreversible model, n=3
[7] = HCT116 tumors, 2-tissue irreversible model

With [2H]C([2H])(O)C([2H])([2H])[N+](C)(C)C[18F] [[^18F]D4-FCH, [^18F]fluoromethyl-[1,2-^2H4]-choline] the “conversion to betaine metabolite in plasma” value [1] was roughly 40%, the “in vitro uptake of 18F-D4-choline” value [2] was “similar” and the “K1′” value [3, 5] was 0.111 ± 0.021. It also gave a Ki [3, 5] of 0.006 ± 0.002 mL/cm^3/min, a k3 [3, 5] of 0.030 ± 0.008 min⁻¹ and an AUC ([3]; mouse, in vivo) of 107.3 ± 7.7. For the same compound, the NUV60 ([3]; mouse, in vivo) was 1.71 ± 0.14 % ID/mL, the “tumor tracer kinetics between 30 and 60 min” value ([4]; HCT116 tumors, dynamic PET) was “Slow wash-out of activity” and the “decrease in Ki compared to 11C-D4-choline” value [4, 6] was 49.2%. The “decrease in k3 compared to 11C-D4-choline” value [4, 6] was 75.2%, the “K1′” value [4, 7] was 0.142 ± 0.027 and the Ki [4, 7] was 0.008 ± 0.001 mL/cm^3/min. It also gave a k3 [4, 7] of 0.039 ± 0.003 min⁻¹, an AUC ([4]; mouse, in vivo) of 114.5 ± 7.0 and an NUV60 ([4]; mouse, in vivo) of 1.81 ± 0.11 % ID/mL. The “tumor radiotracer uptake by PET” value ([4]; mouse, in vivo) was “no higher”.
